This is an account of results in PubChem BioAssay AID182 (DTP/NCI, 2004).

For this assay, the system named is BDF1 mice, P388/ADR leukemia ip, median survival T/C. Nature of the assay: NCI In Vivo Anticancer Drug Screen. Data for tumor model P388 Leukemia resistant to Adriamycin; NSC 123127, Developed at Scr 06 and 41 (intraperitoneal) in B6D2F1 (BDF1) mice. Particulars: endpoint: median survival time, higher = longer survival. The protocol:
The antitumor activity of compounds was measured in mice bearing transplantable tumors. Survival or tumor size were measured and the results are expressed as the measurement made in the treated group (T) divided by the measurement made in the vehicle treated control group (C). The tumor model used in this assay is P388 Leukemia resistant to Adriamycin; NSC 123127, Developed at Scr 06 and 41 (intraperitoneal) in B6D2F1 (BDF1) mice

The mark [1] stands for this setting: dose: 18.0 mg/kg/injection, schedule: Q04DX003 (ip), vehicle: saline.

Where “and” joins values, the source holds several entries; their conditions need not be identical. Identical values can stand only once. Inconclusive results and toxic doses are left out.

As to `CC(=O)C1(O)Cc2c(O)c3c(c(O)c2C(OC2CC(N)C(O)C(C)O2)C1)C(=O)c1ccccc1C3=O` (stereo unspecified), the T/C is 119 % of control (dose: 324.0 micrograms/kg/injection, schedule: Q04DX003 (ip), vehicle: water); 122 % of control (dose: 540.0 micrograms/kg/injection, schedule: Q04DX003 (ip), vehicle: water); 122 % of control (dose: 900.0 micrograms/kg/injection, schedule: Q04DX003 (ip), vehicle: water); 98 % of control (dose: 1500.0 micrograms/kg/injection, schedule: Q04DX003 (ip), vehicle: water).
`CC(=O)c1cccc(NC2C(N)C(NC(=O)N(C)C)(C(C)O)C(C)(O)C2(O)COC(=O)c2c(C)cccc2O)c1` (stereo unspecified): the T/C runs as follows: (dose: 5.18 mg/kg/injection, schedule: Q04DX003 (ip), vehicle: alkali diluted with saline) 90 % of control; (dose: 6.5 mg/kg/injection, schedule: Q04DX003 (ip), vehicle: alkali diluted with saline) 114 % of control; (dose: 8.64 mg/kg/injection, schedule: Q04DX003 (ip), vehicle: alkali diluted with saline) 89 % of control; (dose: 14.4 mg/kg/injection, schedule: Q04DX003 (ip), vehicle: alkali diluted with saline) 87 % of control.
As for `COc1cc2cc3c4cc(OC)c(OC)cc4cc[n+]3c(C)c2cc1OC` (tested in a mixture with another compound), the T/C is, setting by setting: (dose: 86.4 mg/kg/injection, schedule: Q04DX003 (ip), vehicle: other) 103 % of control; (dose: 144.0 mg/kg/injection, schedule: Q04DX003 (ip), vehicle: other) 95 % of control.
`CC[C@H]1CN2CCc3cc(OC)c(OC)cc3[C@@H]2C[C@@H]1C[C@H]1NCCc2cc(OC)c(OC)cc21`: the T/C (dose: 7.78 mg/kg/injection, schedule: Q04DX003 (ip), vehicle: saline) is 106 % of control; the T/C (dose: 9.0 mg/kg/injection, schedule: Q04DX003 (ip), vehicle: saline) was 94 % of control; the T/C (dose: 13.0 mg/kg/injection, schedule: Q04DX003 (ip), vehicle: saline) was 114 % of control; the T/C under setting [1] is 100 % of control; the T/C (dose: 21.6 mg/kg/injection, schedule: Q04DX003 (ip), vehicle: saline) was 106 % of control.
Consider `CCC1=C(C[C@H]2NCCc3cc(OC)c(OC)cc32)C[C@H]2c3cc(OC)c(OC)cc3CCN2C1`, for which the T/C was 108 % of control (dose: 10.8 mg/kg/injection, schedule: Q04DX003 (ip), vehicle: saline); 96 % of control under setting [1]; 107 % of control (dose: 30.0 mg/kg/injection, schedule: Q04DX003 (ip), vehicle: saline).
Turning to `CC[C@@]1(O)C[C@H](OC2CC(N(C)C)C(OC3CC(O)C(OC4CCC(=O)C(C)O4)C(C)O3)C(C)O2)c2c(cc3c(c2O)C(=O)c2c(O)ccc(O)c2C3=O)[C@H]1C(=O)OC` (stereo partly specified), the T/C is, setting by setting: (dose: 0.65 mg/kg/injection, schedule: Q01DX009 (ip), vehicle: water) 110 % of control; (dose: 1.08 mg/kg/injection, schedule: Q01DX009 (ip), vehicle: water) 120 % of control; (dose: 1.73 mg/kg/injection, schedule: Q04DX003 (ip), vehicle: water) 115 % of control and 124 % of control; (dose: 2.5 mg/kg/injection, schedule: Q04DX003 (ip), vehicle: water) 116 % of control; (dose: 2.88 mg/kg/injection, schedule: Q04DX003 (ip), vehicle: water) 119 % of control; (dose: 3.0 mg/kg/injection, schedule: Q01DX009 (ip), vehicle: water) 90 % of control. Further, the T/C (dose: 4.8 mg/kg/injection, schedule: Q04DX003 (ip), vehicle: other) was 119 % of control; the T/C (dose: 4.8 mg/kg/injection, schedule: Q04DX003 (ip), vehicle: water) is 150 % of control; the T/C (dose: 5.0 mg/kg/injection, schedule: Q04DX003 (ip), vehicle: water) is 110 % of control.
For the molecule `CCC1(O)CC2CN(CCc3c([nH]c4ccccc34)C(C(=O)OC)(c3cc4c(cc3OC)N(C)C3C(O)(C(N)=O)C(O)C5(CC)C=CCN6CCC43C65)C2)C1` (stereo unspecified) (tested in a mixture with another compound), the T/C was 107 % of control (dose: 0.65 mg/kg/injection, schedule: Q04DX003 (ip), vehicle: saline); 111 % of control (dose: 1.08 mg/kg/injection, schedule: Q04DX003 (ip), vehicle: saline); 101 % of control (dose: 1.8 mg/kg/injection, schedule: Q04DX003 (ip), vehicle: saline); 86 % of control (dose: 3.0 mg/kg/injection, schedule: Q04DX003 (ip), vehicle: saline).
